Assay results reported in patent publication US20100113415A1, “EPHA4 RTK INHIBITORS FOR TREATMENT OF NEUROLOGICAL AND NEURODEGENERATIVE DISORDERS AND CANCER” (priority 2008, published 2010).
pIC50: −log10 of the molar value.

Tests used:
[1] = test system: Primary Rat cortical astrocytes; assay: Scratch wound assay, astrocytes; format: cell-based; conditions: from AUC of % wound confluence; for pIC50: Rattus norvegicus, Astrocyte, inflexion point, read-out: Scratch Assay Astrocytes IP
Experimental: Primary Rat cortical astrocytes were purchased from Lonza (Walkersvelle Inc., MA, USA). Cells were plated in culture flasks at a density of 1.106-3.106 cells/ml, and maintained at 37° C. and 95% CO2/5% O2, in Astrocyte Growth Medium Bulletkit™ (Lonza Walkersville Inc., MA, USA). When astrocyte cultures reached confluence, cells were trypsinized and replated at 6.105 cells/ml onto 24 well ImageLock™ plate (Essen Instruments, MI, USA).
Scratch wound assays are commonly used to assess the effects of drugs and drug candidates on the cellular proliferation and/or migration associated with wound closing. The IncuCyte™ system (Essen Instruments, MI, USA), an automated imaging platform, provides ongoing, real-time images and quantitative data generated throughout the wound-closing process. Cells were maintained in 24 well ImageLock™ (Essen Instruments, MI, USA) at 37° C. and 95% CO2/5% O2, until a confluent monolayer was achieved. A single scratch wound was then created in each well using the Essen Woundmaker™ (Essen Instruments, MI, USA). It induced a mechanical scratch of the cell monolayer using plastic pipette tips (10-20 μl pipette tips, Eppendorff). Dead cells and other debris produced by the scratch were immediately washed with regular growth media. Cells were then treated with pharmacological agents and were placed into the IncuCyte™ at 37° C. and 95% CO2/5% O2, for two to three days. During this time, the wound area within each well was repeatedly imaged at fixed time intervals (every three hours). The IncuCyte™ scratch wound software generates a “wound mask” for each well. An initial wound mask is created for the first image (at time 0) that clearly delineates the border of the wound. A revised mask is generated for each subsequent image to track wound closure. Wound closure can be automatically monitored using the wound confluence (% confluence). Wound confluence can be graphed over time to evaluate the characteristics of wound closing in the presence of pharmacological agents.
The calculation of the area under the curve (AUC) of the % confluence function of the time gave a quantitative measurement of compounds efficacy on the scratch wound closing. Compounds were titrated in quadruplicate at 5 points concentration starting at 20 μM with a two-fold increment. The percentage of inhibition was calculated from the AUCs at each dose in comparison with the AUCs of the control wells (1% DMSO). Concentration-response curves were represented and the concentrations at the inflexion point (IP) were calculated. The maximum effect was given by the maximum percent inhibition.

[2] = test system: Jak2/Stat3 activation with Interferon Gamma in MCF-7 cells; assay: Cell-based counterscreen assay (IFN-γ activated Jak2/Stat3, pGAS-Luc in MCF-7 cells); conditions: for pIC50: Homo sapiens, MCF7, inflexion point, read-out: Cell Counter Screen Assay IP
Text: EphA4 cell-based assay was based on the signaling pathway of EphA4, which involves activation of the tyrosine kinase Jak2 and the transcriptional activator Stat3. However, pharmacological agents could also interfere downstream of EphA4 signaling and particularly on Jak2 activity. To counterscreen this potential effect unrelated to EphA4 activity, a new assay was designed based on direct activation of the tyrosine kinase Jak2 and the transcriptional activator Stat3 with Interferon Gamma (IFN-γ).
MCF-7 cells were maintained in MEM growth media, supplemented with 10% fetal bovine serum, 2 mM L-glutamine, 1.5 g/L sodium bicarbonate, 0.1 mM non-essential amino acids, 1 mM sodium pyruvate, and 0.01 mg/ml bovine insulin. For the luciferase assay MCF-7 cells were co-transfected the next day with 50 μg of pGAS-Luc and 5 μg of empty vector pRL-CMV, which encoded the Renilla luciferase, and was included in the transfection mix for normalization. Six hours after transfection the cells were trypsinized and plated at 4.105 cells/ml into 96 well Black/Clear Poly-D-Lysine coated plates (Biocoat) that had been pre-spotted with compounds. IFN-γ (BD Pharmingen, USA) was then added to the wells. Cells were lysed the next day using the Reporter Lysis Buffer (Promega), and the luciferase activity was measured using the Dual Luciferase Assay (Promega) following the manufacturer's directions. The Firefly and Renilla luminescences are read consecutively on a Top-Count (Perkin-Elmer).
Results are expressed as a ratio of the two luminescence: Firefly Luciferase/Renilla Luciferase. Cell viability was assessed on parallel plates using the Cell Glo Assay (Promega) following the manufacturer's directions. Results are expressed as percent of cell death in comparison with vehicle-treated wells.
Compounds were titrated in duplicate at 10 points concentration starting at 100 μM with a 1.5 fold increment. Concentration-response curves were represented and the concentrations at the inflexion point (IP) were calculated. The maximum effect was given by the maximum percent inhibition calculated from the results of the control wells (containing only DMSO).

CHO-K1 cells = assay: Cell viability (Cell Glo Assay) on parallel plates of the EphA4 cell assay; format: cell-based, Chinese Hamster; conditions: at 100 μM
Experimental: Transfection and Luciferase Assay: CHO-K1 cells were plated in T-175 cell culture bottle in DMEM medium supplemented with 10% fetal bovine serum, 1 mM sodium pyruvate, 2 mM L-glutamine and 1.5 g/L sodium bicarbonate. When cell reached 70-80% confluence, transfections were performed in T-175 culture flasks, using Lipofectamine 2000™ transfection reagent (Invitrogen) according to the manufacturer's directions. For the luciferase assay CHO-K1 cells were co-transfected the next day with 50 μg of pGAS-Luc, 70 μg of EphA4, and 5 μg of empty vector pRL-CMV, which encoded the Renilla luciferase, and was included in the transfection mix for normalization. […] Cells were lysed the next day using the Reporter Lysis Buffer (Promega), and the luciferase activity was measured using the Dual Luciferase Assay (Promega) following the manufacturer's directions. The Firefly and Renilla luminescences are read consecutively on a Top-Count (Perkin-Elmer). Results are expressed as a ratio of the two luminescence: Firefly Luciferase/Renilla Luciferase. Cell viability was assessed on parallel plates using the Cell Glo Assay (Promega) following the manufacturer's directions. Results are expressed as percent of cell death in comparison with vehicle-treated wells.

C2C12 cells = assay: Proliferation assay (cell confluence), C2C12 cells; format: cell-based, mouse; conditions: at 5 μM
Experimental: C2Cl2 were plated at 15,000 cells per well and then differentiated into myotubes with DMEM supplemented with 2% horse serum for 3 days in 24 well ImageLock™ plate (Essen Instruments, MI, USA). Primary Rat cortical astrocytes were plated at 3.105 cells/ml onto 24 well ImageLock™ plate.
Cells were placed into the IncuCyte™ at 37° C. and 95% CO2/5% O2, for two to three days. During this time, the cells within each well were repeatedly imaged at fixed time intervals (every three hours). The IncuCyte™ system automatically monitored the proliferation using the percentage of confluence. Percent of confluence can be graphed over time to evaluate the characteristics of proliferation in the presence of pharmacological agents.
Compounds were tested at 5 μM in quadruplicate. The percentage of reduction of cell confluence was calculated from the AUCs in comparison with the AUCs of the control wells (1% DMSO).

| Structure (SMILES) | pIC50 [1] | Scratch Assay Astrocytes max inhibition in % [1] [%] | Cell Counter Screen Assay max inhibition in % [2] [%] | pIC50 [2] | Max Toxicity Cell Assay % of cell death (CHO-K1 cells) [% at 100 μM] | % Reduction of Confluence C2C12 Cells (C2C12 cells) [% at 5 μM] |
| --- | --- | --- | --- | --- | --- | --- |
| CC1CCc2c(-c3ccccc3Cl)nc3[nH]nc(N)c3c2C1 (stereo not drawn) [Example 63] | 4.31 | 33 | 82 | 4.70 | 68 | 9.2 |
| Cc1ccccc1-c1nc2[nH]nc(N)c2c2c1CCC(C)(C)C2 [Example 67] | 5.85 | 66 | 81 | 4.89 | 76 | 49.2 |
